Assay results taken from US20110230481A2, “DERIVATIVES OF TETRABROMOBENZIMIDAZOLE, A PROCESS FOR THE PREPARATION THEREOF, A PHARMACEUTICAL COMPOSITION COMPRISING THE SAME, A METHOD OF USING THE SAME, A METHOD FOR MODULATING OR REGULATING SERINE/THREONINE KINASES, AND SERINE/THREONINE KINASES MODULATING AGENT” (SELVITA S.A., priority 2009, published 2011).

Key:
Experiment in all cases: KINOMEscan Max
Format in all cases: binding
NEK6 = NEK6 (Homo sapiens, UniProt Q9HC98)
How it was run: (§1)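 qPCR read-out of a DNA tag measures how much tagged kinase stays bound to immobilized active-site ligand when test compound is present, i.e. competition binding.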

S6K1 = S6K1 (Homo sapiens, UniProt P23443)
How it was run: as §1

[1] = biological target: T1, RPS6KA4(Kin.Dom.1-N-terminal) (Homo sapiens, UniProt O75676)
T1 construct: RPS6KA4(Kin.Dom.1-N-terminal); DNA tag (qPCR read-out)
How it was run: as §1

RET(M918T) = biological target: T2, RET(M918T) (Homo sapiens, UniProt P07949, M918T)
T2 construct: DNA tag (qPCR read-out)
How it was run: as §1

TRKC = TRKC (Homo sapiens, UniProt Q16288)
How it was run: as §1

RET(V804M) = biological target: T3, RET(V804M) (Homo sapiens, UniProt P07949, V804M)
T3 construct: DNA tag (qPCR read-out)
How it was run: as §1

CDK3 = CDK3 (Homo sapiens, UniProt Q00526); conditions: 1 μM
How it was run: as §1

GRK4 = biological target: T4, GRK4 (Homo sapiens, UniProt P32298)
T4 construct: purchased Ambit Kinomescan (contract panel, KINOMEscan Max)
How it was run: as §1

BRAF(V600E) = BRAF(V600E) (Homo sapiens, UniProt P15056, V600E)
How it was run: as §1

PIK3CA(E545K) = PIK3CA(E545K) (Homo sapiens, UniProt P42336, E545K)
How it was run: as §1

LATS1 = biological target: T5, LATS1 (Homo sapiens, UniProt O95835)
T5 construct: purchased Ambit Kinomescan (contract panel)
T5 sequence (O95835 whole entry): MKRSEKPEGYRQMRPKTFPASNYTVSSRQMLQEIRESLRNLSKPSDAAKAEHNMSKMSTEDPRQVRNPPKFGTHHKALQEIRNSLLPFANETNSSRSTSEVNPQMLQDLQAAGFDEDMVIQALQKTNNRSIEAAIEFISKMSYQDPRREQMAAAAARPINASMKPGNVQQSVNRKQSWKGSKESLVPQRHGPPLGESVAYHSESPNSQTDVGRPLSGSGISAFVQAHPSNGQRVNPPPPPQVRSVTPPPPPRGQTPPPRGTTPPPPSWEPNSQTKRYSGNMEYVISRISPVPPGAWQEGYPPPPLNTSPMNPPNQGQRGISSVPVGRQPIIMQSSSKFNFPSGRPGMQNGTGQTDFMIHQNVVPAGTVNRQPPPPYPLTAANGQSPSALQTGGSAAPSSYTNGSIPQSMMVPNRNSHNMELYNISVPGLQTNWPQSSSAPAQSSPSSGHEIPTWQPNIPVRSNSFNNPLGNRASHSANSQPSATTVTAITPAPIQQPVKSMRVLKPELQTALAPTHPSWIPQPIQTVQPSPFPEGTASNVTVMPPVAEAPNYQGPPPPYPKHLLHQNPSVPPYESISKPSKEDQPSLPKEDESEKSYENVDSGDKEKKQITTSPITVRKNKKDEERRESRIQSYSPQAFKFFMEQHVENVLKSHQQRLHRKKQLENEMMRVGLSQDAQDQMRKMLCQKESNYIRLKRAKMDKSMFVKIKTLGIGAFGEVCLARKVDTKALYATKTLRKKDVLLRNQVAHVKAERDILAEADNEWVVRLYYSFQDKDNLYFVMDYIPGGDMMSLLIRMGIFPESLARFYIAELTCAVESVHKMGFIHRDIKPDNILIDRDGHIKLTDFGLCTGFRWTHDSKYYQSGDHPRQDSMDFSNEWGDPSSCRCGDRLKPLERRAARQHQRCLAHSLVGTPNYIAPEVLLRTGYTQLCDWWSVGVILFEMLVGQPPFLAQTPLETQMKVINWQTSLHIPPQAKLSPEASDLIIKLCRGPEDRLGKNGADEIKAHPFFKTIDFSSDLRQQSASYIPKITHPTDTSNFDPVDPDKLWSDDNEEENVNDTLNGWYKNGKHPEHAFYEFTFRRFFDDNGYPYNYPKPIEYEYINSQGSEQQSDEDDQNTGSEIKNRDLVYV
How it was run: as §1

CLK3 = biological target: T6, CLK3 (Homo sapiens, UniProt P49761)
T6 construct: purchased Ambit (KINOMEscan Max service)
How it was run: as §1

LYN = biological target: T7, LYN (Homo sapiens, UniProt P07948)
T7 construct: purchased Ambit Kinomescan (contract panel)
How it was run: as §1

IKK-beta = biological target: T8, IKK-beta (Homo sapiens, UniProt O14920)
T8 construct: DNA tag (qPCR read-out)
How it was run: as §1

ROCK1 = biological target: T9, ROCK1 (Homo sapiens, UniProt Q13464)
T9 construct: DNA tag (qPCR read-out)
T9 sequence (Q13464 whole entry): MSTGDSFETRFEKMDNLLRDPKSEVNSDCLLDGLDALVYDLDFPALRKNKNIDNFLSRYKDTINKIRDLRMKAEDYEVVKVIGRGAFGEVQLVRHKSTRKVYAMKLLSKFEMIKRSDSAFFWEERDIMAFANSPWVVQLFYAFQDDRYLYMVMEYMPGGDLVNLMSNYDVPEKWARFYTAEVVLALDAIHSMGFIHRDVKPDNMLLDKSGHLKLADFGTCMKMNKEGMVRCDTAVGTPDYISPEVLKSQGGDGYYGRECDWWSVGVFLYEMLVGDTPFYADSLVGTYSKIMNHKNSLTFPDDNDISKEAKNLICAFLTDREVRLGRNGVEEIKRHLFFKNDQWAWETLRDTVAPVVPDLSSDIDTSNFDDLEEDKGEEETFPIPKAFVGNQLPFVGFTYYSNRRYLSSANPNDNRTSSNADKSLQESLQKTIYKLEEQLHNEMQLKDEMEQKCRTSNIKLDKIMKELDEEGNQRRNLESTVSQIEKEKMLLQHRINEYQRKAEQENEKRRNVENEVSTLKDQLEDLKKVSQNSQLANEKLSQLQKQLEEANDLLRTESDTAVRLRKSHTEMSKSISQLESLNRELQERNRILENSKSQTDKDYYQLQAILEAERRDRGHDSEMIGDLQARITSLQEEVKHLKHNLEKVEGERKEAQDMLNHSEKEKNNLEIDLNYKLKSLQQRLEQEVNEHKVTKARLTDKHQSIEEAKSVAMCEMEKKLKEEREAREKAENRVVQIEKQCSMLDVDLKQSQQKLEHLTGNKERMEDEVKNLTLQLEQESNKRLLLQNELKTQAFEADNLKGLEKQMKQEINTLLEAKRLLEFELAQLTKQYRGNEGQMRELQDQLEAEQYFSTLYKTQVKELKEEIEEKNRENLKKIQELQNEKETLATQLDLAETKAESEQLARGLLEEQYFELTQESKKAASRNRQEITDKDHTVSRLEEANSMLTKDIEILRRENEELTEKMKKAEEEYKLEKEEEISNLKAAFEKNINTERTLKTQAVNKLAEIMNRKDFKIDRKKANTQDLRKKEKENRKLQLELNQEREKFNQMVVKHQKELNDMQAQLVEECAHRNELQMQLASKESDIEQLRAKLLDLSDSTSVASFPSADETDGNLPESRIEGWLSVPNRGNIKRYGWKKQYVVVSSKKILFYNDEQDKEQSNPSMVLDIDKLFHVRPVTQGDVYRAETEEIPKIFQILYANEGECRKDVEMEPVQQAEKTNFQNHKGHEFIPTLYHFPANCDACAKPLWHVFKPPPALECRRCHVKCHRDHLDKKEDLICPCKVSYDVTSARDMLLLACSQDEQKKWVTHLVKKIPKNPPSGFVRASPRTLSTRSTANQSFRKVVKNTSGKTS
How it was run: as §1

PDGFRB = PDGFRB (Homo sapiens, UniProt P09619)
How it was run: as §1

TLK1 = biological target: T10, TLK1 (Homo sapiens, UniProt Q9UKI8)
T10 construct: DNA tag (qPCR read-out)
How it was run: as §1

TGFBR2 = biological target: T11, TGFBR2 (Homo sapiens, UniProt P37173)
T11 construct: purchased Ambit Kinomescan (contract screening service)
T11 sequence (P37173 23-567): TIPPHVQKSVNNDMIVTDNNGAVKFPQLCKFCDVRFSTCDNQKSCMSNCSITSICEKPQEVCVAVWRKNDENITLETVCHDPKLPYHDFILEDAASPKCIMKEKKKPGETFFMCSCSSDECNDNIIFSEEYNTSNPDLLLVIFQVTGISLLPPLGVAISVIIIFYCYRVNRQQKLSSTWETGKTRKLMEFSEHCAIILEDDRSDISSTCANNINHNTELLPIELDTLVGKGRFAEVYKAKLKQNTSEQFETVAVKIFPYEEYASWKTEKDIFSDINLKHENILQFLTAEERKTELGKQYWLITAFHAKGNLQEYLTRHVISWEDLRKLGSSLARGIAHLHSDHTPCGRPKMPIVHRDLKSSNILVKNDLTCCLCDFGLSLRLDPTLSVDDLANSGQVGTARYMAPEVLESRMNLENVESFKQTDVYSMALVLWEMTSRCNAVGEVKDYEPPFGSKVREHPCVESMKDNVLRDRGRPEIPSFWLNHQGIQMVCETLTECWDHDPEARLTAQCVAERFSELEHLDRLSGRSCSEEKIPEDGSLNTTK
How it was run: as §1

MET = biological target: T12, MET (Homo sapiens, UniProt P08581); conditions: 1 μM
T12 construct: purchased Ambit Kinomescan (contract screening)
How it was run: as §1

ABL1-nonphosphorylated = ABL1-nonphosphorylated (Homo sapiens, UniProt P00519)
How it was run: as §1

MAP4K3 = biological target: T13, MAP4K3 (Homo sapiens, UniProt Q8IVH8); conditions: 1 μM
T13 construct: purchased Ambit (KINOMEscan Max service)
How it was run: as §1

NEK3 = NEK3 (Homo sapiens, UniProt P51956)
How it was run: as §1

PCTK1 = PCTK1 (Homo sapiens, UniProt Q00536)
How it was run: as §1

PRKCH = biological target: T14, PRKCH (Homo sapiens, UniProt P24723)
T14 construct: DNA tag (qPCR read-out); purchased Ambit Kinomescan
T14 sequence (P24723 whole entry): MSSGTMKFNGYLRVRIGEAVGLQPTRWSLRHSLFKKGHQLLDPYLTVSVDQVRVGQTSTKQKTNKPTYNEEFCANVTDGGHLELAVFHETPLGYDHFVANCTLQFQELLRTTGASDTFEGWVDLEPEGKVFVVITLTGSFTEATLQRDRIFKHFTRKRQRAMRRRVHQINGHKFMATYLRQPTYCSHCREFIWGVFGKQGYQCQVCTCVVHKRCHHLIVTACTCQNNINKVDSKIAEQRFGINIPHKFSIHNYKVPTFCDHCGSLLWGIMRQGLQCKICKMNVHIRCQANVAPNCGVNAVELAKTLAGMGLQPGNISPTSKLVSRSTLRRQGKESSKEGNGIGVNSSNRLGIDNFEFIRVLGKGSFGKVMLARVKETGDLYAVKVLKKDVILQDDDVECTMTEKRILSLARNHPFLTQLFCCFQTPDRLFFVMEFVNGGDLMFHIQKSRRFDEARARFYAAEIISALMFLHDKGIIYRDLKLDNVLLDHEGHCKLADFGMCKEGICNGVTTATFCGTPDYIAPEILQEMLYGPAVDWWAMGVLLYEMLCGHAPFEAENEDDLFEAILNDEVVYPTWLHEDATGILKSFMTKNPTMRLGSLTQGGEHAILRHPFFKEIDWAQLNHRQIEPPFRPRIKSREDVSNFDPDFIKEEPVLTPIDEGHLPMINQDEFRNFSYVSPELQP
How it was run: as §1

EPHA8 = biological target: T15, EPHA8 (Homo sapiens, UniProt P29322)
T15 construct: purchased Ambit (KINOMEscan Max service)
How it was run: as §1

p38-delta = p38-delta (Homo sapiens, UniProt O15264)
How it was run: as §1

FLT3(R834Q) = biological target: T16, FLT3(R834Q) (Homo sapiens, UniProt P36888, R834Q)
T16 construct: purchased Ambit Kinomescan (contract panel, KINOMEscan Max)
How it was run: as §1

MINK = MINK (Homo sapiens, UniProt Q8N4C8)
Sequence of MINK (Q8N4C8 whole entry): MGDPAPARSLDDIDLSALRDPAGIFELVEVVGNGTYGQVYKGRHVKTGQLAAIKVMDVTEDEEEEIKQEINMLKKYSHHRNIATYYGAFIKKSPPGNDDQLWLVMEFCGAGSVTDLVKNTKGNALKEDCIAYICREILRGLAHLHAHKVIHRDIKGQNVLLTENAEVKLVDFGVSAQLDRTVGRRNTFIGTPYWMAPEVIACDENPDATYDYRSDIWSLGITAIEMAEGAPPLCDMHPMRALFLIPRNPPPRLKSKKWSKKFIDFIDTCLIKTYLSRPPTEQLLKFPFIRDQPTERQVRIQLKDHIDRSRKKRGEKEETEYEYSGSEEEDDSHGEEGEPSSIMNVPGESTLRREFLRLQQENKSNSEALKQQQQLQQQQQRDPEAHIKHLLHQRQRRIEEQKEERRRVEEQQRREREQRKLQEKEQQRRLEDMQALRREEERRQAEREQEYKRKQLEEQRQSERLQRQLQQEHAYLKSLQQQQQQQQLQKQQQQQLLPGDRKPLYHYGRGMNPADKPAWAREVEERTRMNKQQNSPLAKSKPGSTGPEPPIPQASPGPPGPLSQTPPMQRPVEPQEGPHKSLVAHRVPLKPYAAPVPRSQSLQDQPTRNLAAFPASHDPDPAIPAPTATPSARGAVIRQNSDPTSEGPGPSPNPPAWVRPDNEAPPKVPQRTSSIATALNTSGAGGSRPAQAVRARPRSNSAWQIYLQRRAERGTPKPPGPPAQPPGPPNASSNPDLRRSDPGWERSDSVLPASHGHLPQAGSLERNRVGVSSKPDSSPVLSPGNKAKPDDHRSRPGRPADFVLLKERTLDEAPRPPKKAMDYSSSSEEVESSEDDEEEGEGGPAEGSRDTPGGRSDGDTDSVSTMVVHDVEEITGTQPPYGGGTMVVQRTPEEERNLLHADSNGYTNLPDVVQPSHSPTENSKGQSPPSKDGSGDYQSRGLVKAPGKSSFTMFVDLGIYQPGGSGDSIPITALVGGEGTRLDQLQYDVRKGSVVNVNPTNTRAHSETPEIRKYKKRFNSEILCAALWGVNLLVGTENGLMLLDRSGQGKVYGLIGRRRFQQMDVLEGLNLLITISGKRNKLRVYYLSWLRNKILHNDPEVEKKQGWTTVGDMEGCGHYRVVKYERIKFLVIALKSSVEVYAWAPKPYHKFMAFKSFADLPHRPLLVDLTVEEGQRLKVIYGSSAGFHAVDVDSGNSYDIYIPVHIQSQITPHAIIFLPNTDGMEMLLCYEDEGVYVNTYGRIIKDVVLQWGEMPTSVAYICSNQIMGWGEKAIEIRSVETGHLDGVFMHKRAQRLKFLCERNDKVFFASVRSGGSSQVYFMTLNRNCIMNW
How it was run: as §1

CAMK2D = biological target: T17, CAMK2D (Homo sapiens, UniProt Q13557)
T17 construct: DNA tag (qPCR label); purchased Ambit Kinomescan (contract screening)
How it was run: as §1

PRKX = biological target: T18, PRKX (Homo sapiens, UniProt P51817)
T18 construct: DNA tag (qPCR read-out)
How it was run: as §1

LRRK2 = LRRK2 (Homo sapiens, UniProt Q5S007)
How it was run: as §1

CAMK2B = biological target: T19, CAMK2B (Homo sapiens, UniProt Q13554)
T19 construct: purchased Ambit Kinomescan (contract screening)
How it was run: as §1

CSNK2A2 = biological target: T20, CSNK2A2 (Homo sapiens, UniProt P19784)
T20 construct: DNA tag (qPCR read-out)
How it was run: as §1

SMILES: NCCCNc1nc2c(Br)c(Br)c(Br)c(Br)c2[nH]1 [Compound 11, N-(3-aminopropyl)-4,5,6,7-tetrabromo-1H-benzo[d]imidazol-2-amine]
- remaining binding at 1 µM (NEK6): 100%
- remaining binding at 1 µM (S6K1): 79%
- remaining binding at 1 µM [1]: 55%
- remaining binding at 1 µM (RET(M918T)): 100%
- remaining binding at 1 µM (TRKC): 94%
- remaining binding at 1 µM (RET(V804M)): 100%
- % binding (CDK3): 74%
- remaining binding at 1 µM (GRK4): 100%
- remaining binding at 1 µM (BRAF(V600E)): 96%
- remaining binding at 1 µM (PIK3CA(E545K)): 92%
- remaining binding at 1 µM (LATS1): 100%
- remaining binding at 1 µM (CLK3): 70%
- remaining binding at 1 µM (LYN): 100%
- remaining binding at 1 µM (IKK-beta): 56%
- remaining binding at 1 µM (ROCK1): 28%
- remaining binding at 1 µM (PDGFRB): 80%
- remaining binding at 1 µM (TLK1): 89%
- remaining binding at 1 µM (TGFBR2): 100%
- % binding (MET): 97%
- remaining binding at 1 µM (ABL1-nonphosphorylated): 100%
- % binding (MAP4K3): 85%
- remaining binding at 1 µM (NEK3): 93%
- remaining binding at 1 µM (PCTK1): 100%
- remaining binding at 1 µM (PRKCH): 23%
- remaining binding at 1 µM (EPHA8): 86%
- remaining binding at 1 µM (p38-delta): 100%
- remaining binding at 1 µM (FLT3(R834Q)): 100%
- remaining binding at 1 µM (MINK): 100%
- remaining binding at 1 µM (CAMK2D): 100%
- remaining binding at 1 µM (PRKX): 100%
- remaining binding at 1 µM (LRRK2): 94%
- remaining binding at 1 µM (CAMK2B): 97%
- remaining binding at 1 µM (CSNK2A2): 90%
